Where “and” joins values, the source holds several entries; their conditions need not be identical. Equal entries are not always repeated. Where two headings read alike, the source gives them in different places.
Experiments:
[1] = tested on: T. b. brucei GVR35-VSL2; test: Mouse model of stage 1 and stage 2 HAT, bioluminescence imaging; assay type: in vivo, T. b. brucei in female CD-1 mice
Excerpt: An alternative mouse model for stage 1 (acute) and stage 2 (CNS-involved) HAT has been developed using a transgenic cell line derived from the pleiomorphic T. b. brucei GVR35 that expresses red-shifted firefly luciferase[17],[18]. […] T. b. brucei GVR35-infected mice present stage 1 disease by day 7 post infection with progression to stage 2 by day 21. By injecting the mouse with luciferin, the level of parasitaemia can be estimated in real time by monitoring the luminescence. Unlike monomorphic Lister 427 T. b. brucei, the pleiomorphic GVR35 T. b. brucei is controlled by a quorum-sensing mechanism resulting in the significant increase in survival time in mice and lower blood parasitaemia that occurs in waves. This extended survival time is also accompanied by parasite dissemination to multiple tissues and organs, including the skin, adipose tissue, lung and brain, with parasite loads increasing over time[17],[19].
For the mouse model of stage 1 and stage 2 HAT T. b. brucei GVR35-VSL2 parasites (3 × 10^4) were injected into a single donor female CD-1 mouse intraperitoneally. Once infection was established, starting on day 7 for stage 1 studies and day 21 for stage 2 studies, mice were either left untreated (n = 3) or dosed by oral gavage with CTCB compound in Cremophor EL: EtOH: D-PBS (30:10:60 v/v; n = 6). Progression of T. b. brucei GVR35-VSL2 infection was monitored primarily by in vivo bioluminescence imaging of infected mice using an IVIS Spectrum (PerkinElmer). For stage 1 studies, imaging of infected mice was performed before treatment on day 7 post infection and on days following the treatment (days 8, 9 and 14). Imaging on groups of three mice was performed 12 min after intraperitoneal injection of 150 mg kg^−1 D-luciferin (Promega) in PBS. For stage 2 studies, mice were imaged prior to treatment on day 21, and subsequently on days 22 and 23. On day 23, 24 h after the final dose, mice were sacrificed by cervical dislocation and perfused with PBS containing 15 g L^−1 glucose to allow ex vivo imaging of whole brains (Supplementary Figs. 12 and 13).
Female CD-1 (Charles River UK; 6-8 weeks old) mice were infected with 3 × 10^4 T. b. brucei GVR35-VSL2 bloodstream form parasites intraperitoneally. T. b. brucei GVR35-VSL2 expresses red-shifted luciferase and provides a better signal for imaging (13). Once infection was established, starting on day 7 for Stage 1 studies and day 21 for Stage 2 studies, mice were either left untreated (n=3) or dosed by oral gavage with CTCB compound in Cremophor EL: EtOH : D-PBS (30:10:60 v/v) (n = 6). Additional groups of mice (n=3) that received either a single intraperitoneal dose of diminazene aceturate (Sigma-Aldrich) at 40 mg/kg in sterile water or 0.1 ml melarsoprol gel (14) containing 3.6 mg melarsoprol, applied topically for 3 consecutive days, served as controls for Stage 1 and Stage 2 treatment studies, respectively.
Progression of T. b. brucei GVR35-VSL2 infection was monitored primarily by in vivo bioluminescence imaging of infected mice using an IVIS Spectrum (PerkinElmer) as described previously (5). For stage 1 studies, imaging of infected mice was performed before treatment on day 7 post-infection and in days following the treatment (days 8, 9 and 14). Imaging on groups of three mice was performed 12 minutes after intraperitoneal injection of 150 mg/kg D-luciferin (Promega) in PBS. For stage 2 studies, mice were imaged prior to treatment on day 21 and subsequently on days 22 and 23. On day 23, 24 hours after the final dose, mice were sacrificed by cervical dislocation and perfused with phosphate-buffered saline containing 15 g.L^−1 glucose to allow ex vivo imaging of whole brains. To this end, 100 μl D-luciferin was administered onto the brain surface and imaging performed immediately thereafter.

[2] = target: T1, T. brucei phosphofructokinase (TbPFK) (Trypanosoma brucei brucei, UniProt O15648); test: ADP-Glo assay for measuring PFK inhibition; assay type: biochemical
T1 construct: made in house; host or cells: Escherichia coli C41 (pET28a, codon optimised gene)
T1 sequence (O15648 1-487): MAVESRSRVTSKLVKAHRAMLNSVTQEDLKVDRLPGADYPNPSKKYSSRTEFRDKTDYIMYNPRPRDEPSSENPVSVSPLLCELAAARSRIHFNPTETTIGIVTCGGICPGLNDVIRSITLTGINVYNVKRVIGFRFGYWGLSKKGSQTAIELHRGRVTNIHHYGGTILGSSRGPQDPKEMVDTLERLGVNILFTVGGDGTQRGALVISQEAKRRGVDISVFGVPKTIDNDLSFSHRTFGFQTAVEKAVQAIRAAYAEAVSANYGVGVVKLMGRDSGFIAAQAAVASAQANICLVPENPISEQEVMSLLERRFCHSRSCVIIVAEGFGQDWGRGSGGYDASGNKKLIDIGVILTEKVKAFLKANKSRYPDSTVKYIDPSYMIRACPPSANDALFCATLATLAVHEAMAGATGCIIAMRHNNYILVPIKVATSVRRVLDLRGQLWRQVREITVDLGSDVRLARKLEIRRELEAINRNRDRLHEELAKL
Procedure: Parasite enzyme kinetic data were measured using N-terminally His6-tagged TbPFK expressed in Escherichia coli C41 cells, using a codon optimised gene inserted in a pET28a vector (Supplementary Methods 1). Recombinant human PFKs were expressed in PFK-deficient Saccharomyces cerevisiae. PFK enzyme inhibition was measured using an ADP-Glo^TM assay (Promega) in a 96-well plate format (Supplementary Methods 2.1), using a Spectramax© M5 Multimode Plate Reader to measure luminescence values which were converted to ADP concentrations. IC50 values were determined using a sigmoidal curve fitting algorithm in Kaleidagraph 4 (Supplementary Fig. 1). Mode of action studies were carried out using a linked enzyme assay coupling the forward reaction of TbPFK to the M1 isoform of human pyruvate kinase followed by lactate dehydrogenase. The change in UV absorbance at 340 nm resulting from the conversion of NADH to NAD^+ was measured at 25 °C in ‘kinetic mode’ on a Spectramax© M5 Multimode plate reader. Initial velocities were plotted against substrate concentration to give curves showing non-competitive inhibition (Supplementary Fig. 2). An alternative linked enzyme assay was developed to control for the potential inhibitory activity of ATP on human PFK (Supplementary Methods 2.3).
The ADP-Glo™ end-point assay kit manufactured by Promega (cat. No. V9102) was used to measure ADP produced in the phosphofructokinase reaction:
Following this kinase reaction, the addition of a reagent results in any unused background ATP being removed and the reaction is sequestered. A second reagent is then added to convert the remaining ADP to ATP which is coupled to the luciferase/luciferin reaction to produce light. ‘Ultrapure’ ATP and ADP from Promega were used to reduce background noise. All reagents additional to those provided in the Promega ADP-Glo™ kit were purchased from Sigma-Aldrich.
The assay buffer comprised 50 mM triethanolamine (TEA), 10 mM MgCl2, 5 mM KCl, 0.1% w/v bovine serum albumin (BSA), 0.005% Tween-20, 1% DMSO, pH 7.4. A 3-fold serial dilution of 250x inhibitor stocks was carried out in 100% DMSO. 2 µl of these dilutions was added to 198 µl assay buffer and mixed well using a multichannel pipette. […] Concentration ranges of inhibitor compounds were 40 - 0.006 µM (final concentration, 1% DMSO). The PFK reaction in the presence of inhibitor was carried out using 10 µl of 1 µg/ml PFK (final concentration 0.4 µg/ml) which was added to 10 µl of the 1% DMSO inhibitor compound serial dilutions in a white, non-binding 96-well plate (Greiner BioOne 655904). CTCB-001 was used as a positive control at a final concentration of 5 µM. Assay buffer containing 1% DMSO was added instead of inhibitor compound for the negative control. The protein/inhibitor mixture was incubated for 10 minutes at room temperature (RT). The kinase reaction was started by adding a 5x ATP/F6P stock in assay buffer (final concentrations 0.5 mM F6P and 0.1 mM ATP). Plates were then sealed, centrifuged at 560 x g for 30 seconds and incubated at RT for 30 minutes. 25 µl of ‘ADP-Glo™ Reagent’ was then added to each well, mixed using a multichannel pipette and incubated at room temperature for 40 minutes. 50 µl of ‘Kinase Detection Reagent’ was added and incubated for 50 minutes at RT. The luminescence was recorded using a Spectramax© M5 Multi-mode Plate Reader (Molecular Devices) in single-point mode, with an integration time of 750 milliseconds. The luminescence values were converted to ADP concentration using a standard calibration curve for ADP. The resulting ADP concentrations were plotted as a function of inhibitor compound concentration using Kaleidagraph 4.0 software. The data were analysed using non-linear regression and a sigmoidal curve was fitted (Supplementary Figure 1) to determine the IC50. Kaleidagraph 4.0 uses the Levenberg-Marquardt algorithm in an iterative procedure to fit non-linear curves. […] The slope of the curve at the midpoint (m4) was set to 1.

[3] = tested on: bloodstream form of T. brucei strain Lister 427; test: T. b. brucei 427 growth inhibition assay (LILiT, Alamar Blue); assay type: cell-based; conditions: Trypanosoma brucei
Procedure: The ‘in vitro’ parasite killing assay used the BSF of the non-human pathogenic subspecies T. b. brucei, strain Lister 427, cultured in HMI-9 medium containing 10% foetal bovine serum. A second cell line, T. b. brucei GVR35-Luc2 which constitutively expresses firefly luciferase was grown in Modified HMI-9 plus 20% foetal calf serum supplemented with 20% Serum Plus (Sigma) and 0.15 μg mL^−1 puromycin. Both strains of trypanosomes were cultured in T-25 vented cap flasks at 37 °C and 5% CO2.
The ‘in vitro’ parasite killing assay used the bloodstream-form of the non-human pathogenic subspecies T. b. brucei, strain Lister 427 (a gift from Professor Keith Matthews) which was cultured in HMI-9 medium containing 10% fetal bovine serum (FBS). A second cell line, T. b. brucei GVR35-Luc2 which constitutively expresses firefly luciferase (5) was grown in Modified HMI-9 plus 20% fetal calf serum (FCS) supplemented with 20% Serum Plus (Sigma) and 0.15 μg/ml puromycin as described previously (5). Both strains of trypanosomes were cultured in T-25 vented cap flasks at 37 °C and 5% CO2.
Growth inhibition tests of bloodstream-form T. b. brucei Lister 427 were carried out using the LILiT (long incubation low inoculation test) method (6). The parasites were cultured in complete HMI-9 medium containing 10% FBS in 96-well plates (Greiner Inc.) with approximately 2500 trypanosomes per well. A 3-fold dilution series (in the range from 45 µM – 0.020 µM) of the inhibitor compounds were prepared in the plate; the maximal concentration of DMSO was 0.45%. After 72 hours of incubation at 37 °C and 5% CO2, 50 µl Alamar Blue (0.2% diluted with Dulbecco’s-phosphate buffered saline (D-PBS, Sigma) was added to each well and plates were incubated at 37 °C and 5% CO2 for 4 hours. Fluorescence was read on the BMG multiplate reader using an excitation wavelength of 530 nm and an emission wavelength of 590 nm.

[4] = target: T2, TbPFK (Trypanosoma brucei brucei, UniProt O15648); conditions: amidosulfonamide series; cited from earlier work
T2 construct: made in house; host or cells: Escherichia coli C41 (pET28a, codon optimised gene)
T2 sequence (O15648 1-487): T1 sequence (O15648 1-487)

[5] = ADP-Glo, mean ± SD, read-out: IC50 (µM) for inhibition of T. brucei phosphofructokinase (PFK IC50)
[6] = 72 h, read-out: EC50 (µM) in vitro parasite killing of bloodstream form T. brucei Lister 427 (Tbb EC50), 72 h, Alamar Blue
[7] = source data for Fig. 2 and Table 1, read-out: Average IC50
[8] = source data, read-out: IC50 (µM), single dated measurement
[9] = Average IC50 (µM), source data for Fig. 2 and Table 1
[10] = IC50 (µM), single dated measurement, source data

| SMILES | EC50 [3, 6] [µM] | IC50 [2, 7] [µM] | IC50 [2, 8] | also measured |
| --- | --- | --- | --- | --- |
| Nc1nc(N)nc(Nc2ccc([As]3SCC(CO)S3)cc2)n1 (stereo not shown) [Melarsoprol, melarsoprol, reference compound] | – | – | – | Whole body bioluminescence - Total Flux ([1]; D21 pre-treatment, single mice): 9.807E+10 p/s and 6.826E+10 p/s and 5.548E+10 p/s; Side head bioluminescence - Total Flux ([1]; D23, individual mice, Supp_Fig13): 2.996E+07 p/s and 8.365E+06 p/s and 9.321E+06 p/s; Ex vivo brain bioluminescence - Total Flux ([1]; D23, single mice): 2.000E+06 p/s and 2.248E+06 p/s and 1.646E+06 p/s; Whole body bioluminescence - Total Flux ([1]; D23 post-treatment, single mice): 1.530E+07 p/s and 2.111E+07 p/s and 2.252E+07 p/s |
| Clc1ccc(Cn2ccc3cnccc32)cc1Cl [CTCB103] | 7.8 ± 0.1 | – | – | IC50 [2, 5]: 0.46 ± 0.03 µM |
| Clc1ccc(Cn2cnc3cnccc32)cc1Cl [CTCB107] | 8.5 ± 0.6 | 0.6 | 0.6 µM | IC50 [2, 5]: 1.14 ± 0.76 µM |
| O=c1c2ccn(Cc3ccc(Cl)c(Cl)c3)c2ccn1CCO [CTCB-401] | 0.91 ± 0.04 | – | – | IC50 ([2]; read-out: IC50 TbPFK): 0.073 µM; EC50 ([3]; read-out: EC50 against the parasite): 0.9 µM |
| CC(CN)n1ccc2c(ccn2Cc2ccc(Cl)c(Cl)c2)c1=O (stereo not shown) [CTCB-457] | 0.27 ± 0.01 | 0.11 | 0.092 µM and 0.122 µM | – |
| O=c1[nH]ccc2c1ccn2Cc1ccc(Cl)c(Cl)c1 [CTCB-360] | 1.1 ± 0.1 | 0.07 | 0.041 µM and 0.049 µM and 0.091 µM and 0.059 µM and 0.112 µM | – |
| CNC[C@@H](C)n1ccc2c(ccn2Cc2ccc(Cl)c(Cl)c2)c1=O [CTCB-481] | 0.15 ± 0.05 | 0.12 | 0.122 µM | – |
| O=C(Cc1ccc(Cl)c(Cl)c1)Nc1ccc(S(=O)(=O)Nc2ccon2)cc1 [CTCB-001] | 20.2 ± 2.1 | – | – | IC50 [2, 9]: 0.25 µM; IC50 [2, 10]: 194 nM (2×) and 221 nM and 189 nM and 230 nM and 436 nM and 223 nM and 261 nM (2×); IC50 [4]: ~200 nM |
| NCCn1ccc2c(ccn2Cc2ccc(Cl)c(Cl)c2)c1=O [CTCB-421] | 0.54 ± 0.09 | 0.0335 | – | IC50 ([2]; read-out: IC50 TbPFK): 0.03 µM |
| Clc1ccc(Cn2ccnc2)cc1Cl [CTCB-12] | 8.9 ± 0.2 | – | – | L.E. ligand efficiency [2]: 0.51; IC50 [2, 9]: 0.83 µM; IC50 ([2]; IC50 (µM) for inhibition of T. brucei phosphofructokinase (PFK IC50), ADP-Glo, mean ± SD): 0.83 µM; IC50 [2, 10]: 0.83 µM |

From publication PMC7887271, “Fast acting allosteric phosphofructokinase inhibitors block trypanosome glycolysis and cure acute African trypanosomiasis in mice” (Nature Communications, 2021)
